target: T1, human TLR7 (Homo sapiens, UniProt Q9NYK1); assay: HEK293-Blue-hTLR-7 cells assay (SEAP reporter, R848 stimulation); type: cell-based; conditions: HEK293-Blue-hTLR7 cells, R848, 20 hrs; read-out: HEK/hTLR7 IC50
T1 construct: host or cells: HEK293 (HEK-Blue hTLR7)
T1 sequence (Q9NYK1 27-1049): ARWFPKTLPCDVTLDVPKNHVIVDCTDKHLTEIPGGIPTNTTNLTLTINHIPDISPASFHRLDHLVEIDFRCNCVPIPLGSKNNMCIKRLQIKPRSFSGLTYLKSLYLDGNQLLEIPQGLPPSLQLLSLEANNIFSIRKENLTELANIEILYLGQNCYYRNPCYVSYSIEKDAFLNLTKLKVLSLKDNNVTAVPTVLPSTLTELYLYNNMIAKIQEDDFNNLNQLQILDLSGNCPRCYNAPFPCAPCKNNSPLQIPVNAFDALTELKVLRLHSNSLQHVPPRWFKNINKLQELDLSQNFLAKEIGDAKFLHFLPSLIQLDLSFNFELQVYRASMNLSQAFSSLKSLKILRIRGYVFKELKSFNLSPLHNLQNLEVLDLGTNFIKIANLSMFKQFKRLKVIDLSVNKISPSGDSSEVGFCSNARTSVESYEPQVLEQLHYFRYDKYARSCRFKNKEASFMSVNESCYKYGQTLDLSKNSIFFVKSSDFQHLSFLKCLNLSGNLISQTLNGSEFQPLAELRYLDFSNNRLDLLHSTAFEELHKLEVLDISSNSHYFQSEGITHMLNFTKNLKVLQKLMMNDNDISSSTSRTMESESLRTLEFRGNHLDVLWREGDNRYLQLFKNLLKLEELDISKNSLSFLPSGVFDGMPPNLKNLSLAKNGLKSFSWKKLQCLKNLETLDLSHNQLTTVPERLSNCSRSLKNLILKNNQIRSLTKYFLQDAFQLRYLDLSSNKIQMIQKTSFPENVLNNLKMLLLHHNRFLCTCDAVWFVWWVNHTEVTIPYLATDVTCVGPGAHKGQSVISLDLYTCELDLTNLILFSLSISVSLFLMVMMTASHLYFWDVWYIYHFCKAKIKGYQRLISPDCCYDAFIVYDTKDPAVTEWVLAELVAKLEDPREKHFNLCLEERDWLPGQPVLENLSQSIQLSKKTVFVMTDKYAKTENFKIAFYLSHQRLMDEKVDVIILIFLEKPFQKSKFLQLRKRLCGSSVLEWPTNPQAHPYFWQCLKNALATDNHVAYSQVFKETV
Protocol: The following tests were carried out in order to determine the activity of the compounds of formula (I) and (Ia) in HEK293-Blue-hTLR-7/8/9 cells assay.
A stable HEK293-Blue-hTLR-7 cell line was purchased from InvivoGen (Cat. #: hkb-htlr7, San Diego, California, USA). These cells were originally designed for studying the stimulation of human TLR7 by monitoring the activation of NF-κB. A SEAP (secreted embryonic alkaline phosphatase) reporter gene was placed under the control of the IFN-β minimal promoter fused to five NF-κB and AP-1-binding sites. The SEAP was induced by activating NF-κB and AP-1 via stimulating HEK-Blue hTLR7 cells with TLR7 ligands. Therefore the reporter expression w % as declined by TLR7 antagonist under the stimulation of a ligand, such as R848 (Resiquimod), for incubation of 20 hrs. The cell culture supernatant SEAP reporter activity was determined using QUANTI-Blue™ kit (Cat. #: rep-qb1, Invivogen, San Diego, Ca, USA) at a wavelength of 640 nm, a detection medium that turns purple or blue in the presence of alkaline phosphatase.
HEK293-Blue-hTLR7 cells were incubated at a density of 250,000˜450,000 cells/mL in a volume of 170 μL in a 96-well plate in Dulbecco's Modified Eagle's medium (DMEM) containing 4.5 g/L glucose, 50 U/mL penicillin, […], […] Normocin, 2 mM L-glutamine, 10% (v/v) heat-inactivated fetal bovine serum with addition of 20 μL test compound in a serial dilution in the presence of final DMSO at 1% and 10 μL of 20 uM R848 in above DMEM, perform incubation under 37° C. in a C02 incubator for 20 hrs. Then 20 μL of the supernatant from each well was incubated with 180 μL Quanti-blue substrate solution at 37° C. for 2 hrs and the absorbance was read at 620˜655 nm using a spectrophotometer. The signaling pathway that TLR7 activation leads to downstream NF-κB activation has been widely accepted, and therefore similar reporter assay was modified for evaluating TLR7 antagonist.

Row | SMILES | IC50
1 | C[C@H]1CN(c2ccnc3c2cnn3C)Cc2ccc(N3CCC(N4CCNCC4)CC3)cc21 [Example 10, (4R)-4-methyl-2-(1-methylpyrazolo[3,4-b]pyridin-4-yl)-6-(4-piperazin-1-yl-1-piperidyl)-3,4-dihydro-1H-isoquinoline] | 1 nM
2 | C[C@H]1CN(c2ccnc3c2cnn3C)Cc2ccc(N3CC4(CCNCC4)CC3=O)cc21 [Example 16, 2-[(4R)-4-methyl-2-(1-methylpyrazolo[3,4-b]pyridin-4-yl)-3,4-dihydro-1H-isoquinolin-6-yl]-2,8-diazaspiro[4.5]decan-3-one] | 5 nM
3 | C[C@H]1CN(c2ccnc3c2cnn3C)Cc2ccc(N3CCN(S(=O)(=O)C4CCNC4)CC3)cc21 (stereo partly drawn) [Example 33, (4R)-4-methyl-2-(1-methylpyrazolo[3,4-b]pyridin-4-yl)-6-(4-pyrrolidin-3-ylsulfonylpiperazin-1-yl)-3,4-dihydro-1H-isoquinoline] | 6 nM
4 | C[C@H]1CN(c2ccnc3c2cnn3C)Cc2ccc(N3CC4(CCNCC4)OC3=O)cc21 [Example 26, 3-[(4R)-4-methyl-2-(1-methylpyrazolo[3,4-b]pyridin-4-yl)-3,4-dihydro-1H-isoquinolin-6-yl]-1-oxa-3,8-diazaspiro[4.5]decan-2-one] | 7 nM
5 | C[C@H]1CN(c2ccnc3c2cnn3C)Cc2ccc(N3CCC(N4CC[C@@H](N)[C@H](O)C4)CC3)cc21 [Example 29, trans-4-amino-1-[1-[(4R)-4-methyl-2-(1-methylpyrazolo[3,4-b]pyridin-4-yl)-3,4-dihydro-1H-isoquinolin-6-yl]-4-piperidyl]piperidin-3-ol] | 9 nM
6 | C[C@H]1CN(c2ccnc3c2cnn3C)Cc2ccc(N3CC4CNC[C@H]4C3=O)cc21 (relative stereo) [Example 17, cis-5-[(4R)-4-methyl-2-(1-methylpyrazolo[3,4-b]pyridin-4-yl)-3,4-dihydro-1H-isoquinolin-6-yl]-1,2,3,3a,6,6a-hexahydropyrrolo[3,4-c]pyrrol-4-one] | 8 nM
7 | C[C@H]1CN(c2ccnc3c2cnn3C)Cc2ccc(N3CCC(O)(CN(C)C)CC3)cc21 [Example 13, 4-[(dimethylamino)methyl]-1-[(4R)-4-methyl-2-(1-methylpyrazolo[3,4-b]pyridin-4-yl)-3,4-dihydro-1H-isoquinolin-6-yl]piperidin-4-ol] | 7 nM
8 | Cc1cc(N2Cc3ccc(N4CCNCC4)cc3[C@@H](C)C2)c2cnn(C)c2n1 [Example 2, (4R)-2-(1,6-dimethylpyrazolo[3,4-b]pyridin-4-yl)-4-methyl-6-piperazin-1-yl-3,4-dihydro-1H-isoquinoline] | 8 nM
9 | C[C@H]1CN(c2ccnc3c2cnn3C)Cc2ccc(N3CCN(Cc4cn(C)cn4)CC3)cc21 [Example 37, (4R)-4-methyl-6-[4-[(1-methylimidazol-4-yl)methyl]piperazin-1-yl]-2-(1-methylpyrazolo[3,4-b]pyridin-4-yl)-3,4-dihydro-1H-isoquinoline] | 14 nM
10 | C[C@H]1CN(c2ccnc3c2cnn3C)Cc2ccc(N3CC4(CNCCO4)C3)cc21 [Example 21, 2-[(4R)-4-methyl-2-(1-methylpyrazolo[3,4-b]pyridin-4-yl)-3,4-dihydro-1H-isoquinolin-6-yl]-5-oxa-2,8-diazaspiro[3.5]nonane] | 7 nM
11 | C[C@H]1CN(c2ccnc3c2cnn3C)Cc2ccc(OC[C@H]3CNCCN3)cc21 [Example 18, (4R)-4-methyl-2-(1-methylpyrazolo[3,4-b]pyridin-4-yl)-6-[[(2R)-piperazin-2-yl]methoxy]-3,4-dihydro-1H-isoquinoline] | 8 nM
12 | CO[C@@H]1CN(c2ccc3c(c2)[C@@H](C)CN(c2ccnc4c2cnn4C)C3)C[C@H]1N [Example 20, (3R,4R)-4-methoxy-1-[(4R)-4-methyl-2-(1-methylpyrazolo[3,4-b]pyridin-4-yl)-3,4-dihydro-1H-isoquinolin-6-yl]pyrrolidin-3-amine] | 3 nM

Other lines, results leading:

Row | IC50 | SMILES
13 | 19 nM | Cc1cc(N2Cc3cnc(OCCN4CCNCC4)cc3[C@@H](C)C2)c2cnn(C)c2n1 [Example 77, (4R)-2-(1,6-dimethylpyrazolo[3,4-b]pyridin-4-yl)-4-methyl-6-(2-piperazin-1-ylethoxy)-3,4-dihydro-1H-2,7-naphthyridine]
14 | 7 nM | C[C@H]1CN(c2ccnc3c2cnn3C)Cc2ccc(OC3CN(C4CCNCC4)C3)cc21 [Example 41, (4R)-4-methyl-2-(1-methylpyrazolo[3,4-b]pyridin-4-yl)-6-[1-(4-piperidyl)azetidin-3-yl]oxy-3,4-dihydro-1H-isoquinoline]
15 | 3 nM | C[C@H]1CN(c2ccnc3c2cnn3C)Cc2ccc(O[C@@H]3C[C@H]4CNCCN4C3)cc21 [Example 42, (4R)-4-methyl-2-(1-methylpyrazolo[3,4-b]pyridin-4-yl)-6-[[(7R,8aS)-1,2,3,4,6,7,8,8a-octahydropyrrolo[1,2-a]pyrazin-7-yl]oxy]-3,4-dihydro-1H-isoquinoline]
16 | 8 nM | C[C@H]1CN(c2ccnc3c2cnn3C)Cc2ccc(OCCN3CCNCC3)cc21 [Example 40, (4R)-4-methyl-2-(1-methylpyrazolo[3,4-b]pyridin-4-yl)-6-(2-piperazin-1-ylethoxy)-3,4-dihydro-1H-isoquinoline]
17 | 10 nM | Cc1cc(N2Cc3cnc(N4CCNC5(CC5)C4)cc3[C@@H](C)C2)c2cnn(C)c2n1 [Example 75, (4R)-6-(4,7-diazaspiro[2.5]octan-7-yl)-2-(1,6-dimethylpyrazolo[3,4-b]pyridin-4-yl)-4-methyl-3,4-dihydro-1H-2,7-naphthyridine]
18 | 5 nM | Cc1cc(N2Cc3ccc(OC4CCNCC4)nc3[C@@H](C)C2)c2cnn(C)c2n1 [Example 64, (8S)-6-(1,6-dimethylpyrazolo[3,4-b]pyridin-4-yl)-8-methyl-2-(4-piperidyloxy)-7,8-dihydro-5H-1,6-naphthyridine]
19 | 4 nM | CO[C@H]1CN(c2cc3c(cn2)CN(c2cc(C)nc4c2cnn4C)C[C@@H]3C)CC[C@@H]1N [Example 73, (3S,4S)-3-methoxy-1-[(5R)-7-(1,6-dimethylpyrazolo[3,4-b]pyridin-4-yl)-5-methyl-6,8-dihydro-5H-2,7-naphthyridin-3-yl]piperidin-4-amine]
20 | 5 nM | C[C@H]1CN(c2ccnc3c2cnn3C)Cc2ccc(N3CCNC(CO)C3)cc21 (stereo partly drawn) [Example 49, [4-[(4R)-4-methyl-2-(1-methylpyrazolo[3,4-b]pyridin-4-yl)-3,4-dihydro-1H-isoquinolin-6-yl]piperazin-2-yl]methanol]
21 | 13 nM | Cc1cc(N2Cc3ccc(N4C[C@@H](N)[C@H](O)C4)cc3[C@@H](C)C2)c2cnn(C)c2n1 [Example 47, trans-4-amino-1-[(4R)-2-(1,6-dimethylpyrazolo[3,4-b]pyridin-4-yl)-4-methyl-3,4-dihydro-1H-isoquinolin-6-yl]pyrrolidin-3-ol]
22 | 45 nM | CO[C@@H]1CN(c2cc3c(cn2)CN(c2cc(C)nc4c2cnn4C)C[C@@H]3C)C[C@H]1N [Example 78, (3R,4R)-4-methoxy-1-[(5R)-7-(1,6-dimethylpyrazolo[3,4-b]pyridin-4-yl)-5-methyl-6,8-dihydro-5H-2,7-naphthyridin-3-yl]pyrrolidin-3-amine]

Source: patent publication US20240317735A1, “HYDROISOQUINOLINE OR HYDRONAPHTHYRIDINE COMPOUNDS FOR THE TREATMENT OF AUTOIMMUNE DISEASE” (Hoffmann-La Roche Inc., priority 2020, published 2024)
